#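 Growth conditions: 96-well plates. Treatment: test compound, 48 hours, 5 concentrations. Analysis: linear interpolation between bracketing concentrations; unreached endpoints set to highest concentration. Abbreviation: GI50, concentration required for 50% inhibition of growth. TGI is the concentration that stops growth completely.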 Where a SMILES comes first, the peptide text is derived from it. [ ]: non-standard residue; d: D form.
# Assays:
# Assay in all cases: NCI tumour cell line growth inhibition, 48 h
# [1] = test system: SNB-75 CNS
# [2] = test system: HCC-2998 colon
# [3] = test system: UACC-257 melanoma
# [4] = test system: UO-31 renal
# [5] = test system: RPMI-8226 leukemia
# [6] = test system: SW-620 colon
# [7] = test system: IGROV1 ovarian
# [8] = test system: SK-MEL-28 melanoma
# [9] = test system: OVCAR-3 ovarian
SMILES,GI50 [1] [µM],TGI [1] [µM],GI50 [2] [µM],TGI [2] [µM],GI50 [3] [µM],TGI [3] [µM],GI50 [4] [µM],TGI [4] [µM],GI50 [5] [µM],TGI [5] [µM],GI50 [6] [µM],TGI [6] [µM],GI50 [7] [µM],TGI [7] [µM],GI50 [8] [µM],TGI [8] [µM],GI50 [9] [µM],TGI [9] [µM]
CCCCCCCCc1cc(O)ccc1O,13.3,47.3,18.4,34.4,18.6,56.7,15,28.3,10.5,48.5,21.6,46.1,17.7,43.8,17.4,33.4,15.4,30
COC(=O)[C@@H](C)C[C@H](Cc1ccccc1)NC(=O)c1csc([C@@H](C[C@H](C(C)C)N(C)C(=O)[C@@H](NC(=O)[C@H]2CCCCN2C)C(C(F)(F)F)C(F)(F)F)OC(C)=O)n1,,,0.0747,> 16.7,,,0.224,> 16.7,0.059,3.22,0.0673,> 16.7,0.0666,> 16.7,0.102,> 16.7,0.021,0.253
C=C1C(=O)OC2(C)CCC1CC1OC1(C)CCC=C(C)CCC2O (stereo unspecified),,> 100,,> 100,,> 100,,> 100,,> 100,,> 100,,> 100,,> 100,,> 100
COc1ccc(/C=C/C(=O)c2ccc(Nc3nc(Nc4ccc(F)cc4)nc(Nc4ccc(F)cc4)n3)cc2)cc1,30.6,> 100,14.1,53.8,19,76.4,10.2,31.9,6.66,> 100,19,82.1,,,56.8,> 100,26.7,> 100
CSc1nc2ccc(C)cc2cc1/C=C1/C=C(c2ccccc2)NC1=O,2.81,14.8,> 100,> 100,94.6,> 100,2.58,12.4,8.9,> 100,2.62,92.1,2.71,24.1,23.1,> 100,1.78,15.9
COc1ccc2c(c1)[nH]c1c3ccc(OC)cc3oc(=O)c21,,> 100,,> 100,,> 100,,> 100,,> 100,,> 100,,> 100,,> 100,,> 100
Nc1ccn(C2CC3OCC3O2)c(=O)n1 (stereo unspecified),,> 100,,,,> 100,,> 100,,> 100,,> 100,,> 100,,> 100,,> 100
O=C1C(OC(=O)c2ccccc2)=C(c2ccc(O)cc2)C(=O)C(OC(=O)c2ccccc2)=C1c1ccc(O)cc1,,> 100,,> 100,,> 100,,> 100,,> 100,,> 100,,> 100,,> 100,,> 100
C[C@@H](C[C@H](CCO)c1ccccc1)c1ccc2ccccc2c1,1.35,2.76,1.74,3.27,,,1.54,2.88,1.85,4.26,1.63,3.14,1.57,3.01,1.64,3.06,1.54,2.91
CN1CCN(c2nc3cc(F)ccc3n3cccc23)CC1,,90.7,,> 100,,79,,> 100,,> 100,,> 100,,87.6,,51.8,,> 100
N=C1C=C(N)C(=O)c2ccccc21,0.151,0.293,1.39,2.76,0.161,0.306,0.153,0.32,0.241,0.669,0.22,0.509,0.203,0.42,0.496,1.64,0.139,0.281
Cc1nc2sc(C(=O)Nc3ccccc3)c(N)c2cc1C(=O)c1ccccc1,1.87,> 50,2.19,25.8,31.5,> 50,3.58,> 50,1.86,> 50,2.29,> 50,4.11,> 50,8.82,> 50,1.91,6.19
Cn1cc(-c2csc(-c3cn(C(=O)OC(C)(C)C)c4ccccc34)n2)c2cccnc21,1.7,8.63,10.2,25.3,8.97,23.6,3.46,21.3,7.66,36.7,4.53,21.6,6.5,31,10.2,33.3,2.26,5.61
CCSc1nc(N)c2cnn(CC)c2n1,,,,,10.2,36.5,7.24,> 100,2.38,6.44,3.8,18.2,2.14,9.13,20.4,> 100,4.59,42.6
O=C(/C=C/c1ccc(Cl)cc1Cl)c1ccc(Cl)cc1Cl,40.5,> 100,23.7,> 70.5,21.7,55.3,15,> 44.8,4.22,17.8,9.22,47.3,22.3,55.8,27.2,> 74.4,20.6,48.1
CC1=C(SCCC(=O)OC(C[Se]C2=C(C)C(=O)c3ccccc3C2=O)C(=O)NC(C)(C)C)C(=O)c2ccccc2C1=O (stereo unspecified),1.45,2.76,1.59,2.96,1.76,3.2,0.68,2.15,0.507,2.71,1.36,2.87,0.771,2.1,1.78,3.16,1.43,2.74

SMILES,GI50 [1] [µM],TGI [1] [µM],GI50 [2] [µM],TGI [2] [µM],GI50 [3] [µM],TGI [3] [µM],GI50 [4] [µM],TGI [4] [µM],GI50 [5] [µM],TGI [5] [µM],GI50 [6] [µM],TGI [6] [µM],GI50 [7] [µM],TGI [7] [µM],GI50 [8] [µM],TGI [8] [µM],GI50 [9] [µM],TGI [9] [µM]
CN(C)CCOc1ccc2c(c1)C(=O)/C(=C\c1ncc([N+](=O)[O-])n1C)C2,0.474,1.98,0.507,1.75,0.917,3.19,0.9,3.68,2.14,14.4,0.474,4.22,0.147,0.378,0.922,2.79,0.359,1.26
CCCC(=O)OC(OC(=O)CCC)c1ccc([N+](=O)[O-])o1,,> 100,,32.1,,51.9,,56.7,,49.7,,41.2,,28.3,,46.9,,41.4
CNC(=O)c1cc(-c2ccc(F)cc2)cc(-c2ccc(S(=O)(=O)N3CCCC3)cc2)c1N,12.7,> 25,> 25,> 25,> 22.6,> 25,11.3,> 25,10.1,> 25,18.6,> 25,> 25,> 25,> 25,> 25,18.2,> 25
CC(=O)/C(=C/N1CCN(C(=O)c2ccco2)C1=S)C(=O)c1ccccc1,10.9,35.9,,,,,8.8,18.1,3.79,18.2,6.12,17,10.9,28.4,28,> 50,17.2,> 50
CSCC[C@H](NC(=O)[C@@H](N)CC(N)=O)C(=O)N[C@@H](Cc1c[nH]c2ccccc12)C(=O)N[C@@H](CCC(N)=O)C(=O)N[C@@H](CCC(=O)O)C(=O)N[C@H](C(=O)NCC(=O)N[C@@H](CCCCN)C(=O)N[C@H](C)C(=O)O)C(C)C (H-NMWQEVGK[dA]-OH),,> 100,,> 100,,> 100,,,,> 100,,> 100,,> 100,,> 100,,> 100
COc1ccc2c(c1)C=CC1C2CC[C@]2(C)C(NC(=O)/C=C/c3ccc(O)c(O)c3)CCC12 (stereo partly specified),6.01,20.5,14.4,34.6,20.8,42.7,10.2,27.3,7.98,39.1,9.93,55.2,5.93,24.7,16.2,32,7.19,27.8
C1CC[N-]CC1.CC(=N\O)/C(C)=N/O.CC(=N\O)/C(C)=N/O.C[CH-]C(C)O.[Co+2],19.5,71.4,,,18.2,40.2,42.9,> 100,18.8,43.4,23.5,66.8,31.7,> 100,29.2,61.2,17.4,51.7
CCOC(=O)N(O)c1ccc(/C=C/c2ccccc2)cc1,29.3,> 100,7.03,21.3,0.421,2.49,6.03,36.4,5.08,38.8,5.3,25.1,0.319,3.21,17.6,59.8,3.16,15.7
COc1cc2c(=O)n(CC3CCCCC3)c3c4cc[nH]c4ncc3c2cc1OC,0.209,1.9,18.7,> 50,23.8,> 50,0.848,9.56,3.1,> 50,2,14.6,0.891,13.8,7.25,31.2,6.66,18
CC(=O)OC1=C(CC(C)(C)C)C(=O)c2ccccc2C1=O,,> 100,,> 100,,> 100,,> 100,,39.1,,> 100,,> 100,,> 100,,
N/C(CC(=O)NOC(=O)c1ccccc1)=N/OC(=O)c1ccccc1,,,,,,> 100,,53.9,,> 100,,> 100,,31.7,,99.4,,> 100
O=C1/C(=C/c2ccc(O)cc2)Oc2ccccc21,,> 100,,> 100,,> 100,,,,> 100,,> 100,,> 100,,> 100,,> 100
c1ccc(-c2cc3n4c(-c5ccccc5)nn(-c5ccccc5)c4cnc-3n2)cc1,5.39,17.8,,,> 50,> 50,> 50,> 50,> 50,> 50,> 50,> 50,> 50,> 50,,,> 50,> 50
O=[N+]([O-])c1ccc2nc(-c3ccc(Cl)cc3)[nH]c2c1,,68.5,,,,43.2,,59.7,,57.4,,> 100,,89.5,,> 100,,89.3
C=Cc1cc(OC)c2c(c1)c(=O)oc1c2cc(OC)c2c(O)ccc(C3OC(C(C)O)C(O)C3O)c21 (stereo unspecified),0.0157,0.0515,0.013,0.0422,0.0269,0.0805,0.00262,0.0399,,,0.0117,0.084,0.0034,0.104,0.0225,0.0525,0.0155,0.0423
O=C1CC2OCC=C3CN4CCC5(C(=O)O)C(N1)C2C3CC45 (stereo unspecified),,> 100,,> 100,,> 100,,> 100,,,,> 100,,> 100,,> 100,,> 100
